Measurements taken from patent publication US9187472B2 (AbbVie Inc., priority 2012, dated 2015).

What was measured:
[1] = molecular target: NAMPT (human, recombinant, C-terminally His-tagged) (Homo sapiens, UniProt P43490); test: Time-Resolved Fluorescence Resonance Energy Transfer (TR-FRET) Binding Assay of NAMPT; conditions: without substrates; 6.8 nM NAMPT, 200 nM probe, 3 hours equilibration
How it was run: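 Competitive binding against an Oregon Green 488 tracer (200 nM), 6.8 nM His-tagged enzyme, 1 nM Tb antibody, 2% DMSO, 3 h at RT. IC50 derived from TR-FRET ratios.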

NAMPT = NAMPT (Homo sapiens, UniProt P43490); test: TR-FRET Binding Assay of NAMPT with PRPP; conditions: with 200 μM PRPP and 2.5 mM ATP; 2 nM NAMPT, 2 nM probe, 16 hours equilibration
How it was run: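 Read-out is TR-FRET after a 16 h equilibration allowing possible compound modification by the enzyme. Final mix: 2 nM NAMPT, 2 nM probe, 1 nM Tb-anti-His antibody, 200 μM PRPP, 2.5 mM ATP, 2% DMSO.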

PC3 cells = test: NAMPT Cell Proliferation Assay; assay type: cell-based; conditions: Homo sapiens, PC-3, 120 h, 5 days incubation, cell viability by Cell Titer Glo
How it was run: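 Following overnight attachment in RPMI with 10% heat-inactivated FBS, PC3 cells at 500 per well receive compounds spanning 10 μM down to 1×10^−5 μM. Growth is assessed by luminescent viability read after 5 days.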

Chain of NAMPT (P43490 whole entry): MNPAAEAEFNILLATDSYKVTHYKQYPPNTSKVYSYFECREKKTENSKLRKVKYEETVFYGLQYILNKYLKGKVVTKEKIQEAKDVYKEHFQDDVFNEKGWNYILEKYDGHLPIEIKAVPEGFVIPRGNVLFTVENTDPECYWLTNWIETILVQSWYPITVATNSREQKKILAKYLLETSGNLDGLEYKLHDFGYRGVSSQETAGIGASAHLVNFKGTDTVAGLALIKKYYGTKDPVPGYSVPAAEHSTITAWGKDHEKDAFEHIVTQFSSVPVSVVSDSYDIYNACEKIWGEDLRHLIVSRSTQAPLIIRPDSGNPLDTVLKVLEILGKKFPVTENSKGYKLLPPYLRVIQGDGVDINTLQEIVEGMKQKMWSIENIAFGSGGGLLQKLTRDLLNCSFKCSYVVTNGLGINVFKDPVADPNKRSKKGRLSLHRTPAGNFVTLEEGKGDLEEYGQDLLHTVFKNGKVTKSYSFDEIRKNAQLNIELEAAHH
Chain of NAMPT (human, recombinant, C-terminally His-tagged) (P43490 whole entry): as above

Row | Compound | IC50 [1] | IC50 (NAMPT) | IC50 (PC3 cells)
1 | COCCC(=O)N(CC1CCCO1)c1ncc(C(=O)NCc2ccn3ccnc3c2)s1 (stereo not drawn) [Example 121, N-(imidazo[1,2-a]pyridin-7-ylmethyl)-2-[(3-methoxypropanoyl)(tetrahydrofuran-2-ylmethyl)amino]-1,3-thiazole-5-carboxamide] | 486 nM | 0.234 nM | 3.91 nM
2 | O=C(NCc1ccc2nccn2c1)c1cnc(N2CC(c3ccccc3)OC2=O)s1 (stereo not drawn) [Example 122, N-(imidazo[1,2-a]pyridin-6-ylmethyl)-2-(2-oxo-5-phenyl-1,3-oxazolidin-3-yl)-1,3-thiazole-5-carboxamide] | 255 nM | 4.76 nM | 172 nM
3 | Cc1ncc(CC(=O)N(CC2CCCO2)c2ncc(C(=O)NCc3ccc4nccn4c3)s2)s1 (stereo not drawn) [Example 123, N-(imidazo[1,2-a]pyridin-6-ylmethyl)-2-{[(2-methyl-1,3-thiazol-5-yl)acetyl](tetrahydrofuran-2-ylmethyl)amino}-1,3-thiazole-5-carboxamide] | 133 nM | 2.57 nM | 7.43 nM
4 | Cc1nc(CC(=O)N(CC2CCCO2)c2ncc(C(=O)NCc3ccc4nccn4c3)s2)cs1 (stereo not drawn) [Example 124, N-(imidazo[1,2-a]pyridin-6-ylmethyl)-2-{[(2-methyl-1,3-thiazol-4-yl)acetyl](tetrahydrofuran-2-ylmethyl)amino}-1,3-thiazole-5-carboxamide] | 1100 nM | 2.12 nM | 20.8 nM
5 | Cc1cc(CC(=O)N(CC2CCCO2)c2ncc(C(=O)NCc3ccc4nccn4c3)s2)on1 (stereo not drawn) [Example 125, N-(imidazo[1,2-a]pyridin-6-ylmethyl)-2-{[(3-methyl-1,2-oxazol-5-yl)acetyl](tetrahydrofuran-2-ylmethyl)amino}-1,3-thiazole-5-carboxamide] | 547 nM | 2.09 nM | 23 nM
6 | O=C(NCc1ccc2nccn2c1)c1cnc(N(CC2CCCO2)C(=O)CCc2cc(Cl)no2)s1 (stereo not drawn) [Example 126, 2-{[3-(3-chloro-1,2-oxazol-5-yl)propanoyl](tetrahydrofuran-2-ylmethyl)amino}-N-(imidazo[1,2-a]pyridin-6-ylmethyl)-1,3-thiazole-5-carboxamide] | 102 nM | 0.963 nM | 3.96 nM
7 | COc1cc(CCC(=O)N(CC2CCCO2)c2ncc(C(=O)NCc3ccc4nccn4c3)s2)on1 (stereo not drawn) [Example 127, N-(imidazo[1,2-a]pyridin-6-ylmethyl)-2-{[3-(3-methoxy-1,2-oxazol-5-yl)propanoyl](tetrahydrofuran-2-ylmethyl)amino}-1,3-thiazole-5-carboxamide] | 52.2 nM | 0.522 nM | 2.34 nM
8 | Cc1noc(C)c1CC(=O)N(CC1CCCO1)c1ncc(C(=O)NCc2ccc3nccn3c2)s1 (stereo not drawn) [Example 128, 2-{[(3,5-dimethyl-1,2-oxazol-4-yl)acetyl](tetrahydrofuran-2-ylmethyl)amino}-N-(imidazo[1,2-a]pyridin-6-ylmethyl)-1,3-thiazole-5-carboxamide] | 30.7 nM | 0.873 nM | 2.21 nM
9 | Cc1noc(C)c1CCC(=O)N(CC1CCCO1)c1ncc(C(=O)NCc2ccc3nccn3c2)s1 (stereo not drawn) [Example 129, 2-{[3-(3,5-dimethyl-1,2-oxazol-4-yl)propanoyl](tetrahydrofuran-2-ylmethyl)amino}-N-(imidazo[1,2-a]pyridin-6-ylmethyl)-1,3-thiazole-5-carboxamide] | 11.6 nM | 0.634 nM | 2.74 nM
10 | Cn1cc(CCC(=O)N(CC2CCCO2)c2ncc(C(=O)NCc3ccc4nccn4c3)s2)cn1 (stereo not drawn) [Example 130, N-(imidazo[1,2-a]pyridin-6-ylmethyl)-2-{[3-(1-methyl-1H-pyrazol-4-yl)propanoyl](tetrahydrofuran-2-ylmethyl)amino}-1,3-thiazole-5-carboxamide] | 53.2 nM | 0.981 nM | 6.55 nM
11 | Cc1ncsc1CCC(=O)N(CC1CCCO1)c1ncc(C(=O)NCc2ccc3nccn3c2)s1 (stereo not drawn) [Example 131, N-(imidazo[1,2-a]pyridin-6-ylmethyl)-2-{[3-(4-methyl-1,3-thiazol-5-yl)propanoyl](tetrahydrofuran-2-ylmethyl)amino}-1,3-thiazole-5-carboxamide] | 15.2 nM | 1.67 nM | 2.17 nM
12 | O=C(NCc1ccc2nccn2c1)c1cnc(N(CC2CCCO2)C(=O)Cc2nnn[nH]2)s1 (stereo not drawn) [Example 132, N-(imidazo[1,2-a]pyridin-6-ylmethyl)-2-[(tetrahydrofuran-2-ylmethyl)(1H-tetrazol-5-ylacetyl)amino]-1,3-thiazole-5-carboxamide] | 155 nM | 13.3 nM | 523 nM
13 | O=C(NCc1ccc2nccn2c1)c1cnc(N(CC2CCCO2)C(=O)CCc2ccno2)s1 (stereo not drawn) [Example 133, N-(imidazo[1,2-a]pyridin-6-ylmethyl)-2-{[3-(1,2-oxazol-5-yl)propanoyl](tetrahydrofuran-2-ylmethyl)amino}-1,3-thiazole-5-carboxamide] | 67 nM | 0.709 nM | 2.16 nM
14 | O=C(NCc1ccc2nccn2c1)c1cnc(N(CC2CCCO2)C(=O)Cc2ccon2)s1 (stereo not drawn) [Example 134, N-(imidazo[1,2-a]pyridin-6-ylmethyl)-2-[(1,2-oxazol-3-ylacetyl)(tetrahydrofuran-2-ylmethyl)amino]-1,3-thiazole-5-carboxamide] | 303 nM | 1.49 nM | 6.54 nM
15 | O=C(NCc1ccc2nccn2c1)c1cnc(N(CC2CCCO2)C(=O)CCc2cnoc2)s1 (stereo not drawn) [Example 135, N-(imidazo[1,2-a]pyridin-6-ylmethyl)-2-{[3-(1,2-oxazol-4-yl)propanoyl](tetrahydrofuran-2-ylmethyl)amino}-1,3-thiazole-5-carboxamide] | 73.8 nM | 1.27 nM | 6.36 nM
16 | O=C(NCc1ccc2nccn2c1)c1cnc(N(CC2CCCO2)C(=O)CCc2nccs2)s1 (stereo not drawn) [Example 136, N-(imidazo[1,2-a]pyridin-6-ylmethyl)-2-{(tetrahydrofuran-2-ylmethyl)[3-(1,3-thiazol-2-yl)propanoyl]amino}-1,3-thiazole-5-carboxamide] | 72.7 nM | 0.512 nM | 3.05 nM
17 | CC(C)CC(=O)Nc1ncc(C(=O)NCc2ccc3nccn3c2)s1 [Example 137, N-(imidazo[1,2-a]pyridin-6-ylmethyl)-2-[(3-methylbutanoyl)amino]-1,3-thiazole-5-carboxamide] | 315 nM | 7.21 nM | 225 nM
18 | COCCNC(=O)N(CC1CCCO1)c1ncc(C(=O)NCc2ccn3ccnc3c2)s1 (stereo not drawn) [Example 138, N-(imidazo[1,2-a]pyridin-7-ylmethyl)-2-{[(2-methoxyethyl)carbamoyl](tetrahydrofuran-2-ylmethyl)amino}-1,3-thiazole-5-carboxamide] | 80.7 nM | 0.424 nM | 3.83 nM
19 | COCCC(=O)N(CC1CCOC1)c1ncc(C(=O)NCc2ccc3nccn3c2)s1 (stereo not drawn) [Example 139, N-(imidazo[1,2-a]pyridin-6-ylmethyl)-2-[(3-methoxypropanoyl)(tetrahydrofuran-3-ylmethyl)amino]-1,3-thiazole-5-carboxamide] | 582 nM | 0.173 nM | 12.2 nM
20 | O=C(NCc1ccc2nccn2c1)c1cnc(N(CC2CCOC2)C(=O)C2CCOCC2)s1 (stereo not drawn) [Example 140, N-(imidazo[1,2-a]pyridin-6-ylmethyl)-2-[(tetrahydrofuran-3-ylmethyl)(tetrahydro-2H-pyran-4-ylcarbonyl)amino]-1,3-thiazole-5-carboxamide] | 1340 nM | 0.927 nM | 65.5 nM
21 | COCCNC(=O)N(CC1CCOC1)c1ncc(C(=O)NCc2ccc3nccn3c2)s1 (stereo not drawn) [Example 141, N-(imidazo[1,2-a]pyridin-6-ylmethyl)-2-{[(2-methoxyethyl)carbamoyl](tetrahydrofuran-3-ylmethyl)amino}-1,3-thiazole-5-carboxamide] | 2110 nM | 0.757 nM | 77.8 nM
22 | COCCC(=O)N(CC1CCOCC1)c1ncc(C(=O)NCc2ccc3nccn3c2)s1 [Example 142, N-(imidazo[1,2-a]pyridin-6-ylmethyl)-2-[(3-methoxypropanoyl)(tetrahydro-2H-pyran-4-ylmethyl)amino]-1,3-thiazole-5-carboxamide] | 1430 nM | 3.05 nM | 18.2 nM
23 | O=C(NCc1ccc2nccn2c1)c1cnc(N(CC2CCOCC2)C(=O)C2CCOC2)s1 (stereo not drawn) [Example 143, N-(imidazo[1,2-a]pyridin-6-ylmethyl)-2-[(tetrahydrofuran-3-ylcarbonyl)(tetrahydro-2H-pyran-4-ylmethyl)amino]-1,3-thiazole-5-carboxamide] | 8710 nM | 2.03 nM | 80.8 nM
24 | O=C(NCc1ccc2nccn2c1)c1cnc(N(CC2CCOCC2)C(=O)C2CCOCC2)s1 [Example 144, N-(imidazo[1,2-a]pyridin-6-ylmethyl)-2-[(tetrahydro-2H-pyran-4-ylcarbonyl)(tetrahydro-2H-pyran-4-ylmethyl)amino]-1,3-thiazole-5-carboxamide] | 9490 nM | 2.92 nM | 187 nM
